Measured values published in publication PMC2154353 (The Journal of General Physiology, 2007).

Columns and labels:
[1] = target: T1, MEC-4 homomeric channel (A713wt), coexpressed with MEC-2 (Caenorhabditis elegans, UniProt P24612, A713T); test: two-electrode voltage clamp, oocytes, dose-response of current block; format: cell-based
T1 sequence (P24612 1-768 A713T): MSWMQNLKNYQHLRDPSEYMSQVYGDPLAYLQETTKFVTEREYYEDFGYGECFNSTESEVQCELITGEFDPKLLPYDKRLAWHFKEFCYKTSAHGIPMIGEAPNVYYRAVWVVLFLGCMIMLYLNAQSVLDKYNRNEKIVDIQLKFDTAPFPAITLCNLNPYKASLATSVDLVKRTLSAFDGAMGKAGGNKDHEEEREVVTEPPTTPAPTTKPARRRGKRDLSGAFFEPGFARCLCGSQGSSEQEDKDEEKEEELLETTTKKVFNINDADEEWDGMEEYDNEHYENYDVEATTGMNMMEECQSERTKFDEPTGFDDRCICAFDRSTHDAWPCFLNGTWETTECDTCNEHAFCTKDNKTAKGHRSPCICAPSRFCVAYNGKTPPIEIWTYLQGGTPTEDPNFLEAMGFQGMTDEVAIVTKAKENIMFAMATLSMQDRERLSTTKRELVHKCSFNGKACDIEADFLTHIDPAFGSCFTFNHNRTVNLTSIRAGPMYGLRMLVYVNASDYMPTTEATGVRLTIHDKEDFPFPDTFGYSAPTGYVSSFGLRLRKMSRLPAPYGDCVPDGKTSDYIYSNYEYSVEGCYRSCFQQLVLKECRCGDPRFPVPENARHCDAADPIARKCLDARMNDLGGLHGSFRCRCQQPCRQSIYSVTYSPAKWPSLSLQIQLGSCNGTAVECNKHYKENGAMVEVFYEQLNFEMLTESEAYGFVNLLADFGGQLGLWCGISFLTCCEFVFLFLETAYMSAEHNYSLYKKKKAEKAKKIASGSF
T1 sequence (Q27433 1-481 partner): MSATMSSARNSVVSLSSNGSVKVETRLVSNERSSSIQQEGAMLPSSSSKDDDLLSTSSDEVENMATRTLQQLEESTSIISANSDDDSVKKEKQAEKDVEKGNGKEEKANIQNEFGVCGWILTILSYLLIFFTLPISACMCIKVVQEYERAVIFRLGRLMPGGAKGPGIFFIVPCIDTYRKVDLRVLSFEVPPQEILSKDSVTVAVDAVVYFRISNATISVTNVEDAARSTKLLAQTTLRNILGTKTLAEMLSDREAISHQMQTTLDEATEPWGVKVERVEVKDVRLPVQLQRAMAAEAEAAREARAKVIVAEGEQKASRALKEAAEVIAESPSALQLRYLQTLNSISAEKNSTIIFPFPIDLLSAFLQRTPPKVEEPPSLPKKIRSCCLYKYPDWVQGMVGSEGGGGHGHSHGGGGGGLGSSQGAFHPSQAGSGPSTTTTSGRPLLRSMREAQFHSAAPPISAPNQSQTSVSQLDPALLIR

[2] = target: T2, MEC-4 homomeric channel (A713wt), coexpressed with MEC-2 (Caenorhabditis elegans, UniProt P24612); test: as above; format: cell-based
T2 sequence (P24612 1-768): T1 sequence (P24612 1-768 A713T)
T2 sequence (Q27433 1-481 partner): T1 sequence (Q27433 1-481 partner)

For `N=C(N)c1ccccc1` [benzamidine], the Ki [1] was 196 ± 40 µM and the Ki [2] was 108 ± 3 µM.
For `NC(=NCc1ccccc1)NC(=O)c1nc(Cl)c(N)nc1N` [benzamil], the Ki [1] was 0.83 ± 0.14 µM and the Ki [2] was 0.15 ± 0.01 µM.
